Where “and” joins values, the source holds several entries; their conditions need not be identical. Equal values may be shown once.
Test system: MIN6 mouse insulinoma cells, cytotoxicity counterscreen
Assay: MIN6 cell viability loss – mouse insulinoma, cytotoxicity control, dose response (AID 2122)

SMILES: CN(C)c1ccnc2c[cH-]cc12.[Fe].c1ccc(-[c-]2[c-](-c3ccccc3)[c-](-c3ccccc3)[c-](-c3ccccc3)[c-]2-c2ccccc2)cc1 (stereo unspecified)
- IC50: 4.89 µM and 2.24 µM
